Laboratory results as given in US9676749B2, “Compositions and methods for cancer detection and treatment” (Ohio State Innovation Foundation, priority 2009, dated 2017).
Entries after “also recorded” stand apart in the source; their conditions may differ. Where two headings read alike, the source gives them in different places.

Columns and labels:
[1] = system: symmetrical dimethylation (S2Me) of histone H4R3 in glioma cell line U1242; assay: Symmetric dimethyl H4R3 (S2Me-H4R3) content in glioma/astrocytoma cell lines by confocal microscopy and flow cytometry; assay type: cell-based, human; settings: for S2Me-H4R3 in astrocytoma cell lines, single agent or combined: CMP5 at 25 uM, HDAC inhibitor TSA; for H4R3 symmetric 2Me arginine methylation (S2Me): U1242, 8 hour incubation, confocal microscopy; for S2Me-H4R3 content, flow cytometric assay (FIG. 18): U1242 and U251, TSA (25 nM) and/or CMP5 (25 uM)
Protocol: (§1) Confocal microscopy was used with mAbs specific for symmetrical dimethylation (S2Me) of histone H4R3. Positive control for loss of PRMT5 activity was provided by treatment of U1242 cells with a PRMT5-specific siRNA used in above experiments. (B) Cell proliferation was assessed in replicate cultures incubated in DMSO and compounds 1-8.
Initial Screening experiments were performed utilizing monoclonal antibodies specific for H4R3 symmetric dimethyl arginine and confocal microscopy generated images evaluating H4R3 methylation. Controls included scrambled and SiRNA specific for PRMT5 to verify knockdown and loss of H4R3 methylation. […] Findings similar to PRMT5-specific SiRNA treatment.
Recent work reported by Pal et al has shown that PRMT5 associates with SWI/SNF chromatin remodeling complexes along with other co-repressor molecules like HDAC2. […] We utilized a flow cytometric assay to evaluate symmetric dimethyl H4R3 (S2Me-H4R3) content and confocal microscopy to verify loss of methylation status.
(§2) The biochemical association of PRMT5 and HDAC2 with repressive chromatin remodeling complexes and cooperative enzyme kinetics has been previously described. […] As a control, we utilized a flow cytometric assay to evaluate symmetric dimethyl H4R3 (S2Me-H4R3, FIG. 18) content and confocal microscopy (not shown) to verify decrease of methylation status. We used Aimexin V/PI staining and flow cytometry to examine apoptosis (below). […] We are presently performing dose response experiments to examine whether this activity can be improved. In data not shown, we can achieve similar results with lower doses of CMP5 (10 uM). […] Inhibition PRMT5 with CMP5 and HDAC enzymes (at 10 fold lower concentrations) leads to synergistic induction of apoptosis of astrocytoma cell lines.

U1242 cell line = assay: Cell proliferation of GBM cells; assay type: cell-based, human; settings: for cell proliferation / anti proliferative activity: GBM cells (U1242), vs DMSO control
Protocol: as §1
Preliminary enzymatic activity assays are currently underway and will be provided as an update during submission of supplementary materials.

[2] = system: astrocytoma cell lines (U1242 and U251); assay: Apoptosis of GBM/astrocytoma cell lines (Annexin V/PI, flow cytometry); assay type: cell-based, human; settings: single agents, not shown
Source text: (B) inhibition of migration at 12 hrs after addition of siRNA to knock down PRMT5 vs. Scramble siRNA control.
as §2

purified PRMT5 [3] = biological target: T1, purified PRMT5 (Homo sapiens, UniProt O14744); settings: 100-500 uM CMP5, H4 substrate, 3H-SAM, 3 h at 37 C; ±7.8%, p<0.001, data not shown
Protocol: The next step required studies to explore whether CMP5 was capable of selectively inhibiting a type II PRMT enzyme. Type I PRMT enzymes are involved in transcriptional activation (asymmetric dimethylation at H4R3) and type II PRMT enzymes regulates transcriptional repression (symmetric dimethylation or S2Mc at H4R3). To achieve this goal, we performed enzyme inhibition assays using purified PRMT1 (type I PRMT enz) and purified PRMT5 (type II PRMT enz). Assays were performed utilizing 2 methods. The first utilized methods described previously by Zhao et at (Nat Struct Mol Biol. 2009), where 1 ug of H4 (Roche) was used as substrate and 2 uCi of S-adenosyl-L-methyl-^3H-methionine (^3H-SAM; Amersham) as the methyl donor in the presence or absence of 100-500 uM of CMP5 was incubated in HMTase buffer for 3 h at 37° C. Reaction mixtures were spotted on Whatman P-81 filter paper and washed to remove unincorporated [^3H]SAM. Methylated peptides were detected by scintillation counting. […] The second method utilized a methyltransferase activity assay to distinguish if differential inhibitory activity of CMP5 existed against the type I PRMT1 vs. the type II enzyme PRMT. […] Fluorescently labeled SAM tracer was added followed by anti-SAM antibody that produces a change in fluorescent polarization that can be measured using a fluorescence reader.

purified PRMT1 = purified PRMT1 (Homo sapiens, UniProt Q99873); settings: 100-500 uM, one hour at 37 C, 3 replicate experiments, p<0.0001
Source text: (§3) Do achieve this, we performed enzyme inhibition assays using purified PRMT1 (a type I PRMT enzyme) and purified PRMT5 (a type II PRMT enzyme).
(§4) The next step required studies to explore whether CMP5 was capable of selectively inhibiting a type II PRMT enzyme. Type I PRMT enzymes are involved in transcriptional activation (asymmetric dimethylation at H4R3) and type II PRMT enzymes regulates transcriptional repression (symmetric dimethylation or S2Mc at H4R3). To achieve this goal, we performed enzyme inhibition assays using purified PRMT1 (type I PRMT enz) and purified PRMT5 (type II PRMT enz). Assays were performed utilizing 2 methods. The first utilized methods described previously by Zhao et at (Nat Struct Mol Biol. 2009), where 1 ug of H4 (Roche) was used as substrate and 2 uCi of S-adenosyl-L-methyl-^3H-methionine (^3H-SAM; Amersham) as the methyl donor in the presence or absence of 100-500 uM of CMP5 was incubated in HMTase buffer for 3 h at 37° C. Reaction mixtures were spotted on Whatman P-81 filter paper and washed to remove unincorporated [^3H]SAM. Methylated peptides were detected by scintillation counting. […] The second method utilized a methyltransferase activity assay to distinguish if differential inhibitory activity of CMP5 existed against the type I PRMT1 vs. the type II enzyme PRMT. The methyltransferase assay we used (Amsbio inc) utilized purified PRMT5 and PRMT1 enzyme preparations and tested for methylation of Histone H4 at arginine 3 (H4R3). SAM was incubated with a sample containing substrate H4 peptide, different concentrations of methyltransferase enzymes (PRMT5 or PRMT1), in presence or absence of CMP5 (100-500 uM) for one hour at 37° C. Fluorescently labeled SAM tracer was added followed by anti-SAM antibody that produces a change in fluorescent polarization that can be measured using a fluorescence reader.

purified PRMT5 [4] = biological target: T1, purified PRMT5
Source text: as §3, §4

human pure PRMT5 enzyme = human pure PRMT5 enzyme (Homo sapiens, UniProt O14744); assay: In vitro methylation assay; assay type: biochemical; settings: FIG. 21 left
Protocol: SAM was omitted for the substrate control, and human pure PRMT5 enzyme was omitted for blank control. (right) Jeko and Mino cells were treated by 10 uM of BLL36 for 24 hr, viability was evaluated by flow cytometry.

[5] = compound 5 at 20, 30, 40, 50 and 100 uM, 48 hours

Sequence of purified PRMT1 (Q99873 whole entry, species assumed): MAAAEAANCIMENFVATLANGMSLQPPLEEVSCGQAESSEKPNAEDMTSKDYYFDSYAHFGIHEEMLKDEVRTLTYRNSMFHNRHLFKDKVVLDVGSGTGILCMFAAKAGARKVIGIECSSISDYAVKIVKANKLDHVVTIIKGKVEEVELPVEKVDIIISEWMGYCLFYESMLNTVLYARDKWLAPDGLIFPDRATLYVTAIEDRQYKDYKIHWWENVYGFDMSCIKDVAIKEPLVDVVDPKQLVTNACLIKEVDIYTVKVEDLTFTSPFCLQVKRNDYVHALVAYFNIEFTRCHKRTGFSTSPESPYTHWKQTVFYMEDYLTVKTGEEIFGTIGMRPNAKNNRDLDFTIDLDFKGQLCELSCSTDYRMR
T1 sequence (O14744 whole entry): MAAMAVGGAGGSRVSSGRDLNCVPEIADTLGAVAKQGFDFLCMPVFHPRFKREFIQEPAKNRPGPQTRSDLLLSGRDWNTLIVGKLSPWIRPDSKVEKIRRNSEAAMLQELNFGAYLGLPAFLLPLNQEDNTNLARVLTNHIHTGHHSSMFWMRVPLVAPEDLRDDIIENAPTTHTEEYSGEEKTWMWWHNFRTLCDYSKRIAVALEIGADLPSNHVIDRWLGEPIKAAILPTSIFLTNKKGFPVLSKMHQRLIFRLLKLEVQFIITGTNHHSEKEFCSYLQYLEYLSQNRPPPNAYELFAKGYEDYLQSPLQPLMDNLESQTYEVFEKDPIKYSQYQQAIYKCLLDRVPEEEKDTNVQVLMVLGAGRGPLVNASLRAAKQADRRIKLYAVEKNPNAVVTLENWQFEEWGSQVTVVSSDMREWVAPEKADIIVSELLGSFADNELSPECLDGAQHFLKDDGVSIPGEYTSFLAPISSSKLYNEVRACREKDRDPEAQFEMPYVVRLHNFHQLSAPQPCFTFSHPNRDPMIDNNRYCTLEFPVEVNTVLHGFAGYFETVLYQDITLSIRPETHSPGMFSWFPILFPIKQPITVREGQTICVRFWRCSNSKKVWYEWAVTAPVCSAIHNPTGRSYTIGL
T1 sequence (Q9BQA1 whole entry partner): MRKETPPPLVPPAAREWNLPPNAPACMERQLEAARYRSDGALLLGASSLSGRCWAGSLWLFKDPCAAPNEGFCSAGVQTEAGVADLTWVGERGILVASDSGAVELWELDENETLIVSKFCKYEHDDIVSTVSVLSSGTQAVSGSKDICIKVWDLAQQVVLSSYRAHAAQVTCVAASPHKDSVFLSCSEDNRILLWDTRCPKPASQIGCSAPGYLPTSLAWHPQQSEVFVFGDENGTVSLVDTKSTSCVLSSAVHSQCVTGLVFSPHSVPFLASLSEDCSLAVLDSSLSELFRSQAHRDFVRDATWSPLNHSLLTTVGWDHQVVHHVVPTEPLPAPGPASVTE
Sequence of human pure PRMT5 enzyme (O14744 whole entry): as the sequence (O14744 whole entry) above
Sequence of human pure PRMT5 enzyme (Q9BQA1 whole entry partner): as the sequence (Q9BQA1 whole entry partner) above

Structure (SMILES)	S2Me-H4R3 in astrocytoma cell lines, single agent or combined [1]	concentration of compound 5 giving loss of S2Me status of H4R3 on co-treatment with HDACi TSA ([1]; GBM cell lines, co-treated with TSA)	fold lower concentration of compound 5 for loss of S2Me H4R3 on co-treatment with TSA ([1]; GBM cell lines, co-treated with TSA (75, 100 nM))	H4R3 symmetric 2Me arginine methylation (S2Me) [1]	H4R3 symmetric 2Me arginine methylation (S2Me) ([1]; listed as CMP5)	S2Me-H4R3 content, flow cytometric assay (FIG. 18) [1]	degree of H4R3 methylation, titration [1, 5]	concentration of CMP5 required for reduced methylation, single agent ([1]; original dose response experiments)	cell proliferation / anti proliferative activity (U1242 cell line)	cell proliferation / anti proliferative activity (U1242 cell line; listed as CMP5)	cellular proliferation (absolute cell numbers), titration (U1242 cell line; [5])	apoptosis of GBM cell lines [2]	reduction of methyltransferase activity (purified PRMT5 [3])	inhibition of PRMT1 activity (purified PRMT1)	inhibition of PRMT1 activity (purified PRMT1; listed as CMP5)	inhibition of PRMT5 activity (purified PRMT5 [4]; 100-500 uM, one hour at 37 C, 3 replicate experiments, p<0.0001)	IC50 (purified PRMT5 [4]; lead compound of the initial screen)	concentration that decreased methyltransferase activity of PRMT5 (human pure PRMT5 enzyme)
CCn1c2ccccc2c2cc(CNCc3ccccn3)ccc21 [Compound 5]	unchanged	10 µM	> 10 fold	most efficacy; also recorded: best activity; also recorded: reduced; also recorded: capable of inhibiting H4R3 symmetric 2Me arginine methylation	loss of symmetric dimethyl-H4R3	no change in S2Me-H4R3	a dose response was seen	100 µM	most efficacy; also recorded: reduced cell proliferation	antiproliferative effect	a dose response was seen	promote apoptosis of GBM cell lines	55%	not PRMT1 activity	not PRMT1 enzymatic activity	selectively inhibiting PRMT5 activity	micromolar (uM) ranges	100 µM
CC(/C=C/C(=O)NO)=C\[C@@H](C)C(=O)c1ccc(N(C)C)cc1 [TSA, Trichostatin A, reference compound]	unchanged					no change in S2Me-H4R3												
